The experiment deals with T1, PDGF receptor (Rattus norvegicus, UniProt Q05030).
T1 construct: cultured rat mesangial cells which are known to have the PDGF receptor; endogenous in cells; host or cells: primary mesangial cells cultured from glomeruli of Wistar-Kyoto rats (Charles River Japan), more than 5 passages
Put plainly: PDGF receptor autophosphorylation inhibition in cultured rat mesangial cells. The experiment is classed as cell-based. The settings on record: PDGF-BB 50 ng/ml. On the procedure: 1. Cultivation of rat mesangial cells
The glomerulus-derived adhesive cells were subcultured several times to obtain mesangial cells. The mesangial cells subcultured more than 5 passages were used for the assay.
2.Evaluation of PDGF receptor autophosphorylation inhibition
The mesangial cells were seeded in 24-well flat-bottom microtiter plates and then cultured in the medium containing 10% FCS for 2 days. When the cells were grown to about 3×10^4 cells per well, the medium was changed to the medium containing 0.5% FCS, the cultivation was continued for another 3 days, and then cell growth was arrested. The culture medium was removed, the adhered cells were washed with 500 μl of the medium, and 250 μl of the medium containing 0.1% bovine serum albumin (hereinafter abbreviated to BSA) was then added. A test drug dissolved in 1.38 μl of dimethyl sulfoxide (hereinafter abbreviated to DMSO) was added to this culture medium, and the admixture was incubated at 37° C. for 1 hour. Recombinant human platelet-derived growth factor BB chain (hereinafter abbreviated to PDGF-BB) was dissolved in the medium containing 0.1% BSA, 25 μl per well of the solution was added at final 50 ng/ml, and the incubation was continued at 37° C. for 10 minutes. […] The cells were allowed to stand at 4° C. for 30 minutes for lysis, and the resulting solution was thoroughly admixed with an equal amount of Tris-buffered physiological saline containing 1% sodium dodecyl sulfate (hereinafter abbreviated to SDS). […] After the electrophoresis, proteins in the gel were electrically transferred to a PVDF filter, which was then subjected to Western blotting using monoclonal antibodies against phosphotyrosine. Bands of PDGF receptor (molecular weight: about 180 Kda) which were autophosphorylated due to the addition of PDGF-BB were quantitated by a densitometer. Autophosphorylation rates for individual wells with drugs were calculated by setting measurements for PDGF receptor autophosphorylation in the wells without drugs in the presence and absence of PDGF-BB as 100% and 0%, respectively.

T1 sequence (Q05030 32-1097): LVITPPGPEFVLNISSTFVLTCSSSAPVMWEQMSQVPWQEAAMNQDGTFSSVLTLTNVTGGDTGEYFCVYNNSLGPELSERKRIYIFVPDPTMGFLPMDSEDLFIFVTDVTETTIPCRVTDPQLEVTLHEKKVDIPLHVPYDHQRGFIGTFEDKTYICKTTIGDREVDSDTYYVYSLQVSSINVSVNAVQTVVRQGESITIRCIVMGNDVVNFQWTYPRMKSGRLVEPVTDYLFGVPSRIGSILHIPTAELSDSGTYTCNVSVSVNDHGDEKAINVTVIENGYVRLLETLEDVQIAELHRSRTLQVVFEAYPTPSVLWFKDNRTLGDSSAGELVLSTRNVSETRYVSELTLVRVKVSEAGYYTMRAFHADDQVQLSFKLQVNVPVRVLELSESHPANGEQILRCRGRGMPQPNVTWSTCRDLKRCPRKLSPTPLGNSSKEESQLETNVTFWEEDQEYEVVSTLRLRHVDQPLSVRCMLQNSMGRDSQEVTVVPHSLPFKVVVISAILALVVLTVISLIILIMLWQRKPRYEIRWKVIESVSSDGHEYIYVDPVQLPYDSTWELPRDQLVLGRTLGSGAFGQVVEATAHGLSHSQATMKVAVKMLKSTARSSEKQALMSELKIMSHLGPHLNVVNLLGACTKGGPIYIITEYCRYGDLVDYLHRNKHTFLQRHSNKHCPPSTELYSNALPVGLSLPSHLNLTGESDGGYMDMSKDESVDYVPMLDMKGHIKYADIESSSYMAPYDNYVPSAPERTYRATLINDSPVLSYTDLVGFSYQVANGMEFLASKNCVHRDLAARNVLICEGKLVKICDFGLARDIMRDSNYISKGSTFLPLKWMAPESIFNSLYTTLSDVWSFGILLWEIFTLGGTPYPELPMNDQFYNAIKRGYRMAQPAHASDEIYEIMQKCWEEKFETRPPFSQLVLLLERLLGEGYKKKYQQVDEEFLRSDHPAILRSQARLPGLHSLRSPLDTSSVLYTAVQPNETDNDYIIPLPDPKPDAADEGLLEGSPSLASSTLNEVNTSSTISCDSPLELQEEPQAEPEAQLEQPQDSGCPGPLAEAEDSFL

A word on the IC50: it is the midpoint of a concentration-inhibition curve. Turning to `COc1cc2nccc(Oc3ccc(NC(=O)Nc4ccc(Oc5ccc(F)cc5)nc4)cc3)c2cc1OC` [Compound 279, N-{5-[2-(4-fluoro)phenoxy]-pyridyl}-N'-(4-[(6,7-dimethoxy-4-quinolyl)oxy]phenyl}urea], the IC50 was determined as 29 nM.
The same measure for `COc1ccc(NC(=O)Nc2ccc(Oc3ccnc4cc(OC)c(OC)cc34)cc2)c(OC)c1` [Compound 265, N-(2,4-Dimethoxyphenyl)-N'-{4-[(6,7-dimethoxy-4-quinolyl)oxy]phenyl}urea]: 5 nM; for `CCCCNC(=O)Nc1ccc(Oc2ncnc3cc(OC)c(OC)cc23)cc1` [Compound 220, N-(4-[(6,7-Dimethoxy-4-quinazolinyl)oxy]phenyl)-N'-n-butylurea]: 9 nM.
The same measure for `COc1cc2nccc(Oc3ccc(NC(=O)Nc4cccc(O)c4)cc3)c2cc1OC` [Compound 282, N-(3-Hydroxyphenyl)-N'-{4-[(6,7-dimethoxy-4-quinolyl)oxy]phenyl}urea]: 8 nM; for `CCCCCCNC(=O)Nc1ccc(Oc2ccnc3cc(OC)c(OC)cc23)cc1` [Compound 196, N-Hexyl-N'-{4-[(6,7-dimethoxy-4-quinolyl)oxy]phenyl}urea]: 31 nM; for `CCCCc1ccc(NC(=O)Nc2ccc(Oc3ccnc4cc(OC)c(OC)cc34)cc2)cc1` [Compound 47, N-(4-Butylphenyl)-N'-{4-[(6,7-dimethoxy-4-quinolinyl)oxy]phenyl}urea]: 43 nM.
Compound `COc1cc2nccc(Oc3ccc(NC(=O)Nc4cccc(N)c4)cc3)c2cc1OC` [Compound 172, N-(3-Aminophenyl)-N'-{4-[(6,7-dimethoxy-4-quinolyl)oxy]phenyl}urea] registered an IC50 of 10 nM.
For the compound `COc1cc2nccc(Oc3ccc(NC(=O)Nc4ccccc4)cc3)c2cc1OC` [Compound 167, N-{4-[(6,7-Dimethoxy-4-quinolyl)oxy]phenyl}-N'-phenylurea], the IC50 worked out at 4 nM.
For `COc1cc2nccc(Oc3ccc(NC(=O)c4ccc(C(C)=O)cc4)cc3)c2cc1OC` [Compound 68, N-{4-[(6,7-Dimethoxy-4-quinolinyl)oxy]phenyl}-(4-acetylphenyl)carboxamide], the IC50 turned out to be 440 nM.
In the case of `COc1cc2nccc(Oc3ccc(NC(=O)Nc4ccc(Oc5ccccc5)cc4)cc3)c2cc1OC` [Compound 50, N-{4-[(6,7-Dimethoxy-4-quinolinyl)oxy]phenyl}-N'-(4-phenoxyphenyl)urea], inhibition was half-maximal at 67 nM (IC50).
Then `COc1cc2nccc(Oc3ccc(NC(=O)Nc4cccc(N(C)C)c4)cc3)c2cc1OC` [Compound 192], with 4 nM; and `COc1cc2nccc(Oc3ccc(NC(=O)Nc4ccc(C(=O)c5ccccc5)cc4)cc3)c2cc1OC` [Compound 195, N-{4-[(6,7-Dimethoxy-4-quinolyl)oxy]phenyl}-N'-(4-phenylcarbonylphenyl)urea], with 79 nM.
In the case of `COc1cc2nccc(Oc3ccc(C(=O)c4ccc(N5CCCC5)cc4)cc3)c2cc1OC` [Compound 289, (4-[{6,7-Dimethoxy-4-quinolyl)oxy]phenyl)[4-pyrrolidinophenyl]methanone], the half-inhibitory concentration (IC50) was determined as 32 nM.
Then `COc1cc2nccc(Oc3ccc(NC(=O)NC4CCCCC4)cc3)c2cc1OC` [Compound 253, N-(Cyclohexyl)-N'-{4-[(6,7-dimethoxy-4-quinolyl)oxy]phenyl}urea], with 7 nM; and `COc1cc2nccc(Oc3ccc(NC(=O)Nc4ccc([N+](=O)[O-])cc4Cl)cc3)c2cc1OC` [Compound 224, N-(2-Chloro-4-nitrophenyl)-N'-{4-[(6,7-dimethoxy-4-quinolyl)oxy]phenyl}urea], with 87 nM.
Take `COc1cc2nccc(Oc3ccc(NC(=O)Nc4ccccc4C(F)(F)F)cc3)c2cc1OC` [Compound 54]: it took 3 nM to reach half-maximal inhibition (IC50).
`COc1cc2nccc(Oc3ccc(NC(=O)C4CCCCC4)cc3)c2cc1OC` [Compound 63, N-{4-[(6,7-Dimethoxy-4-quinolinyl)oxy]phenyl}-cyclohexanecarboxamide] came in with an IC50 of 400 nM.
The same measure for `COc1cc2nccc(Oc3ccc(NC(=O)Nc4ccc(N)cc4Cl)cc3)c2cc1OC` [Compound 274, N-(4-Amino-2-chlorophenyl)-N'-{4-[(6,7-dimethoxy-4-quinolyl)oxy]phenyl}urea]: 36 nM; for `CCCCNC(=O)Nc1ccc(Oc2ccnc3cc(OC)c(OC)cc23)cc1` [Compound 139, N-n-Butyl-N'-{4-[(6,7-dimethoxy-4-quinolyl)oxy]phenyl}urea]: 5 nM; for `COc1cc2nccc(Oc3ccc(NC(=O)NC(=O)c4ccccc4)cc3)c2cc1OC` [Compound 189, N-Benzoyl-N'-{4-[(6,7-dimethoxy-4-quinolyl)oxy]phenyl}urea]: 11 nM.
`COc1cc2nccc(Oc3ccc(NC(=O)Nc4ccc(F)c(F)c4F)cc3)c2cc1OC` [Compound 257, N-(2,3,4-Trifluorophenyl)-N'-{4-[(6,7-dimethoxy-4-quinolyl)oxy]phenyl}urea] yielded an IC50 of 7 nM.
The same measure for `COc1cc2nccc(Oc3cccc(NC(=O)Nc4ccccc4C(F)(F)F)c3)c2cc1OC` [Compound 94]: 23 nM; for `COc1ccccc1NC(=O)Nc1ccc(Oc2ncnc3cc(OC)c(OC)cc23)cc1` [Compound 113, N-{4-[(6,7-Dimethoxy-4-quinazolinyl)oxy]phenyl)-N'-(2-methoxyphenyl)urea]: 4 nM; for `COc1cc2nccc(Oc3ccc(NC(=O)Nc4ccccc4-c4ccccc4)cc3)c2cc1OC` [Compound 175, N-(2-Biphenyl)-N'-{4-[(6,7-dimethoxy-4-quinolyl)oxy]phenyl}urea]: 6 nM.
Regarding `COc1cc2nccc(Oc3ccc(NC(=O)Nc4cc(F)ccc4F)cc3)c2cc1OC` [Compound 273, N-(2,5-Difluorophenyl)-N'-{4-[(6,7-dimethoxy-4-quinolyl)oxy]phenyl}urea], the 50% inhibitory concentration (IC50) stood at 5 nM.
For `COc1cc2nccc(Oc3ccc(C(=O)c4ccc(C(F)(F)F)cc4)cc3)c2cc1OC` [Compound 29, (4-Trifluoromethylphenyl){4-[(6,7-dimethoxy-4-quinolyl)oxy]phenyl}methanone], it took 800 nM to reach half-maximal inhibition (IC50).
Turning to `COc1cc2nccc(Oc3ccc(NC(=O)c4ccc(Br)cc4)cc3)c2cc1OC` [Compound 75, N-{4-[(6,7-Dimethoxy-4-quinolinyl)oxy]phenyl}-(4-bromophenyl)carboxamide], the half-inhibitory concentration (IC50) came out at 180 nM.
As for `COc1ccc(OC)c(NC(=O)Nc2ccc(Oc3ccnc4cc(OC)c(OC)cc34)cc2)c1` [Compound 258, N-(2,5-Dimethoxyphenyl)-N'-{4-[(6,7-dimethoxy-4-quinolyl)oxy]phenyl}urea], the IC50 was 7 nM.
Regarding `COc1cc2nccc(Oc3ccc(NC(=O)Nc4c(F)cc(F)cc4F)cc3)c2cc1OC` [Compound 256, N-(2,4,6-Trifluorophenyl)-N'-{4-[(6,7-dimethoxy-4-quinolyl)oxy]phenyl}urea], the IC50 is 4 nM.
In turn, “N-(2-Chloro-3-methylphenyl)-N'-{4-[(6,7-dimethoxy-4-quinolyl)oxy]phenyl}urea [Compound 243]” yielded an IC50 of 14 nM.
The compound `COc1cc2nccc(Oc3ccc(NC(=O)Nc4cccc(C(=O)O)c4)cc3)c2cc1OC` [Compound 283, N-(3-Hydroxycarbonylphenyl)-N'-{4-[(6,7-dimethoxy-4-quinolyl)oxy]phenyl}urea] came in with an IC50 of 2 nM.
`COc1cc2nccc(Oc3ccc(NC(=O)NC(C)C)cc3)c2cc1OC` [Compound 135] returned an IC50 of 43 nM.

Source of the values: US6143764A, “Quinoline and quinazoline derivatives inhibiting platelet-derived growth factor receptor autophosphorylation and pharmaceutical compositions containing the same” (priority 1995, dated 2000).
